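Cultured in 96-well plates, cells were exposed to test compound for 48 hours across five concentrations. GI50 is the concentration that inhibits growth by half. TGI marks complete inhibition of growth.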
Assays:
Assay in all cases: DTP human tumour cell line panel, 48 h
HCT-116 colon = test system: HCT-116 colon
A498 renal = test system: A498 renal
MDA-MB-435 = test system: MDA-MB-435
UACC-62 melanoma = test system: UACC-62 melanoma
CAKI-1 renal = test system: CAKI-1 renal
NCI-H226 lung = test system: NCI-H226 lung
SW-620 colon = test system: SW-620 colon
OVCAR-5 ovarian = test system: OVCAR-5 ovarian
SR leukemia = test system: SR leukemia
HOP-92 NSCLC = test system: HOP-92 NSCLC
NCI/ADR-RES ovarian = test system: NCI/ADR-RES ovarian
NCI-H522 lung = test system: NCI-H522 lung
OVCAR-8 ovarian = test system: OVCAR-8 ovarian
IGROV1 ovarian = test system: IGROV1 ovarian
RPMI-8226 leukemia = test system: RPMI-8226 leukemia
MCF7 breast = test system: MCF7 breast
UO-31 renal = test system: UO-31 renal
SNB-19 CNS = test system: SNB-19 CNS
NCI-H460 lung = test system: NCI-H460 lung
LOX IMVI melanoma = test system: LOX IMVI melanoma
OVCAR-3 ovarian = test system: OVCAR-3 ovarian
OVCAR-4 ovarian = test system: OVCAR-4 ovarian
MOLT-4 leukemia = test system: MOLT-4 leukemia
K-562 leukemia = test system: K-562 leukemia
CCRF-CEM leukemia = test system: CCRF-CEM leukemia
MALME-3M melanoma = test system: MALME-3M melanoma
NCI-H23 lung = test system: NCI-H23 lung
RXF 393 renal = test system: RXF 393 renal
MDA-MB-231 breast = test system: MDA-MB-231 breast
SNB-75 CNS = test system: SNB-75 CNS
HCT-15 colon = test system: HCT-15 colon
SK-MEL-28 melanoma = test system: SK-MEL-28 melanoma
HCC-2998 colon = test system: HCC-2998 colon
SK-MEL-5 melanoma = test system: SK-MEL-5 melanoma
UACC-257 melanoma = test system: UACC-257 melanoma
COLO 205 colon = test system: COLO 205 colon
HOP-62 NSCLC = test system: HOP-62 NSCLC
A549 NSCLC = test system: A549 NSCLC
BT-549 breast = test system: BT-549 breast
HS 578T breast = test system: HS 578T breast
DU-145 prostate = test system: DU-145 prostate
T-47D breast = test system: T-47D breast
786-0 renal = test system: 786-0 renal
SF-268 CNS = test system: SF-268 CNS
SF-295 CNS = test system: SF-295 CNS
ACHN renal = test system: ACHN renal
HT29 colon = test system: HT29 colon
KM12 colon = test system: KM12 colon
M14 melanoma = test system: M14 melanoma
SF-539 CNS = test system: SF-539 CNS
TK-10 renal = test system: TK-10 renal
U251 CNS = test system: U251 CNS
HL-60(TB) leukemia = test system: HL-60(TB) leukemia
SN12C renal = test system: SN12C renal
SK-OV-3 ovarian = test system: SK-OV-3 ovarian
PC-3 prostate = test system: PC-3 prostate
EKVX NSCLC = test system: EKVX NSCLC
SK-MEL-2 melanoma = test system: SK-MEL-2 melanoma

With `O=[n+]1c2ccccc2n([O-])c2cc(Cl)ccc21` the GI50 (HCT-116 colon) was 3.37 µM, the TGI (HCT-116 colon) was 12.7 µM and the GI50 (A498 renal) was 1.14 µM. For the same molecule, the TGI (A498 renal) was 14.7 µM, the GI50 (MDA-MB-435) was 11.3 µM and the TGI (MDA-MB-435) was 23.7 µM. For the same molecule, the GI50 (UACC-62 melanoma) was 6.17 µM, the TGI (UACC-62 melanoma) was 23.8 µM and the GI50 (CAKI-1 renal) was 3.28 µM. It also gave a TGI (CAKI-1 renal) of 13.1 µM, a GI50 (NCI-H226 lung) of 7.32 µM and a TGI (NCI-H226 lung) of 25.6 µM. The GI50 (SW-620 colon) was 3.73 µM, the TGI (SW-620 colon) was 18.7 µM and the GI50 (OVCAR-5 ovarian) was 15.7 µM. It also gave a TGI (OVCAR-5 ovarian) of 33.5 µM, a GI50 (SR leukemia) of 2.19 µM and a TGI (SR leukemia) of 7.53 µM. It also gave a GI50 (HOP-92 NSCLC) of 2.14 µM, a TGI (HOP-92 NSCLC) of 8.29 µM and a GI50 (NCI/ADR-RES ovarian) of 4.31 µM. It also gave a TGI (NCI/ADR-RES ovarian) of 40.3 µM, a GI50 (NCI-H522 lung) of 1.47 µM and a TGI (NCI-H522 lung) of 3.11 µM. The GI50 (OVCAR-8 ovarian) was 3.5 µM, the TGI (OVCAR-8 ovarian) was 15.4 µM and the GI50 (IGROV1 ovarian) was 1.86 µM. It also gave a TGI (IGROV1 ovarian) of 6.95 µM, a GI50 (RPMI-8226 leukemia) of 2.45 µM and a TGI (RPMI-8226 leukemia) of 5.98 µM. For the same molecule, the GI50 (MCF7 breast) was 3.72 µM, the TGI (MCF7 breast) was 16.1 µM and the GI50 (UO-31 renal) was 3.52 µM. The TGI (UO-31 renal) was 15 µM, the GI50 (SNB-19 CNS) was 9.46 µM and the TGI (SNB-19 CNS) was 39.5 µM. For the same molecule, the GI50 (NCI-H460 lung) was 2.05 µM, the TGI (NCI-H460 lung) was 14.7 µM and the GI50 (LOX IMVI melanoma) was 2.83 µM. It also gave a TGI (LOX IMVI melanoma) of 11.9 µM, a GI50 (OVCAR-3 ovarian) of 3.48 µM and a TGI (OVCAR-3 ovarian) of 12.3 µM. The GI50 (OVCAR-4 ovarian) was 2.67 µM, the TGI (OVCAR-4 ovarian) was 26.6 µM and the GI50 (MOLT-4 leukemia) was 0.385 µM. The TGI (MOLT-4 leukemia) was 2.03 µM, the GI50 (K-562 leukemia) was 3.02 µM and the TGI (K-562 leukemia) was 12.8 µM. For the same molecule, the GI50 (CCRF-CEM leukemia) was 0.533 µM, the TGI (CCRF-CEM leukemia) was 5 µM and the GI50 (MALME-3M melanoma) was 7.76 µM. The TGI (MALME-3M melanoma) was 20.8 µM, the GI50 (NCI-H23 lung) was 4 µM and the TGI (NCI-H23 lung) was 25 µM. It also gave a GI50 (RXF 393 renal) of 3.03 µM, a TGI (RXF 393 renal) of 10 µM and a GI50 (MDA-MB-231 breast) of 4.21 µM. For the same molecule, the TGI (MDA-MB-231 breast) was 22.2 µM, the GI50 (SNB-75 CNS) was 3.18 µM and the TGI (SNB-75 CNS) was 15 µM. It also gave a GI50 (HCT-15 colon) of 2.55 µM, a TGI (HCT-15 colon) of 8.59 µM and a GI50 (SK-MEL-28 melanoma) of 16.4 µM. It also gave a TGI (SK-MEL-28 melanoma) of 97.4 µM, a GI50 (HCC-2998 colon) of 6.81 µM and a TGI (HCC-2998 colon) of 20.5 µM. It also gave a GI50 (SK-MEL-5 melanoma) of 9.11 µM, a TGI (SK-MEL-5 melanoma) of 21.6 µM and a GI50 (UACC-257 melanoma) of 5.49 µM. For the same molecule, the TGI (UACC-257 melanoma) was 18.1 µM, the GI50 (COLO 205 colon) was 4.65 µM and the TGI (COLO 205 colon) was 18.2 µM. It also gave a GI50 (HOP-62 NSCLC) of 3.15 µM, a TGI (HOP-62 NSCLC) of 10.9 µM and a GI50 (A549 NSCLC) of 3.17 µM. It also gave a TGI (A549 NSCLC) of 22.9 µM, a GI50 (BT-549 breast) of 5.2 µM and a TGI (BT-549 breast) of 24.1 µM. The GI50 (HS 578T breast) was 2.95 µM, the TGI (HS 578T breast) was 21.7 µM and the GI50 (DU-145 prostate) was 11.3 µM. The TGI (DU-145 prostate) was 24.1 µM, the GI50 (T-47D breast) was 1.96 µM and the TGI (T-47D breast) was 11.7 µM. The GI50 (786-0 renal) was 3.12 µM, the TGI (786-0 renal) was 13.4 µM and the GI50 (SF-268 CNS) was 2.99 µM. For the same molecule, the TGI (SF-268 CNS) was 10.7 µM, the GI50 (SF-295 CNS) was 4.32 µM and the TGI (SF-295 CNS) was 20.9 µM. The GI50 (ACHN renal) was 2.91 µM, the TGI (ACHN renal) was 9.95 µM and the GI50 (HT29 colon) was 3.6 µM. For the same molecule, the TGI (HT29 colon) was 13.5 µM, the GI50 (KM12 colon) was 5.77 µM and the TGI (KM12 colon) was 18.4 µM. The GI50 (M14 melanoma) was 10.7 µM, the TGI (M14 melanoma) was 29.9 µM and the GI50 (SF-539 CNS) was 3.5 µM. The TGI (SF-539 CNS) was 11.2 µM, the GI50 (TK-10 renal) was 4.96 µM and the TGI (TK-10 renal) was 18 µM. It also gave a GI50 (U251 CNS) of 2.71 µM, a TGI (U251 CNS) of 12 µM and a GI50 (HL-60(TB) leukemia) of 2.07 µM. For the same molecule, the TGI (HL-60(TB) leukemia) was 4.47 µM, the GI50 (SN12C renal) was 3.52 µM and the TGI (SN12C renal) was 14.1 µM. It also gave a GI50 (SK-OV-3 ovarian) of 7.12 µM and a TGI (SK-OV-3 ovarian) of 20.4 µM.
Molecule `O=C(CC(=O)N1N=C(N(c2ccccc2)c2ccccc2)CC1c1ccccc1)Nc1ccc(Cl)cc1` (stereo not given) has a TGI (HCT-116 colon) of over 100 µM, a TGI (MDA-MB-435) of over 100 µM and a TGI (UACC-62 melanoma) of over 100 µM. The TGI (CAKI-1 renal) was over 100 µM, the TGI (NCI-H226 lung) was over 100 µM and the TGI (SW-620 colon) was over 100 µM. The TGI (OVCAR-5 ovarian) was over 100 µM, the TGI (SR leukemia) was over 100 µM and the TGI (HOP-92 NSCLC) was over 100 µM. For the same molecule, the TGI (NCI/ADR-RES ovarian) was over 100 µM, the TGI (NCI-H522 lung) was over 100 µM and the TGI (OVCAR-8 ovarian) was over 100 µM. The TGI (PC-3 prostate) was over 100 µM, the TGI (IGROV1 ovarian) was over 100 µM and the TGI (RPMI-8226 leukemia) was over 100 µM. It also gave a TGI (MCF7 breast) of over 100 µM, a TGI (EKVX NSCLC) of over 100 µM and a TGI (UO-31 renal) of over 100 µM. It also gave a TGI (SNB-19 CNS) of over 100 µM, a TGI (NCI-H460 lung) of over 100 µM and a TGI (OVCAR-3 ovarian) of over 100 µM. For the same molecule, the TGI (OVCAR-4 ovarian) was over 100 µM, the TGI (MOLT-4 leukemia) was over 100 µM and the TGI (K-562 leukemia) was over 100 µM. For the same molecule, the TGI (CCRF-CEM leukemia) was over 100 µM, the TGI (NCI-H23 lung) was over 100 µM and the TGI (RXF 393 renal) was over 100 µM. It also gave a TGI (MDA-MB-231 breast) of over 100 µM, a TGI (SNB-75 CNS) of over 100 µM and a TGI (HCT-15 colon) of over 100 µM. The TGI (SK-MEL-28 melanoma) was over 100 µM, the TGI (HCC-2998 colon) was over 100 µM and the TGI (SK-MEL-5 melanoma) was over 100 µM. The TGI (UACC-257 melanoma) was over 100 µM, the TGI (COLO 205 colon) was over 100 µM and the TGI (HOP-62 NSCLC) was over 100 µM. The TGI (A549 NSCLC) was over 100 µM, the TGI (BT-549 breast) was over 100 µM and the TGI (HS 578T breast) was over 100 µM. It also gave a TGI (DU-145 prostate) of over 100 µM, a TGI (T-47D breast) of over 100 µM and a TGI (SK-MEL-2 melanoma) of over 100 µM. For the same molecule, the TGI (786-0 renal) was over 100 µM, the TGI (SF-268 CNS) was over 100 µM and the TGI (SF-295 CNS) was over 100 µM. The TGI (ACHN renal) was over 100 µM, the TGI (HT29 colon) was over 100 µM and the TGI (KM12 colon) was over 100 µM. The TGI (M14 melanoma) was over 100 µM, the TGI (SF-539 CNS) was over 100 µM and the TGI (TK-10 renal) was over 100 µM. The TGI (U251 CNS) was over 100 µM, the TGI (HL-60(TB) leukemia) was over 100 µM and the TGI (SN12C renal) was over 100 µM. It also gave a TGI (SK-OV-3 ovarian) of over 100 µM.
